Experimental data published in patent US20250051321A1, “TRICYCLIC DERIVATIVE AND PREPARATION METHOD THEREFOR AND APPLICATION THEREOF” (SHANGHAI JEMINCARE PHARMACEUTICAL CO., LTD., priority 2021, published 2025).
Where two headings read alike, the source gives them in different places.

What was measured:
[1] = biological target: ATX (Homo sapiens (Human), UniProt Q13822); assay: ATX enzyme inhibition assay (Amplex UltraRed/choline oxidase/HRP, 16:0 Lyso PC substrate); format: biochemical; settings: assay buffer pH 8.5; read-out: IC50 (nM) pH 8.5
Procedure: All compounds were prepared as a 10 mM DMSO stock solution.
Solutions at pH 8.5 and pH 7.5 were prepared respectively with the following formulations:
All compounds, including the positive control compound, were diluted 5-fold from 10 mM to 2 mM with DMSO in the first step. The mixture was then diluted to 100 μM with 1× assay buffer.
3. Separate Detection of Compounds with 1× Assay Buffer at Two pH Values:
a) 5 μL of 10× compound diluent was added to a 384-well plate (Greiner 781209) using a motorized pipette (see the “experimental preparation” step). 5 μL of 1× assay buffer containing 5% DMSO was added to both negative and positive control wells. The plate was centrifuged at 300 rpm for 1 minute at room temperature.
b) 2× ATX ([…]) was prepared with 1× assay buffer, and 25 μL of 2× ATX was added to the plate using a motorized pipette. 25 μL of 1× assay buffer was added to the negative control wells and 25 μL of 2× ATX was added to the positive control wells. The plate was centrifuged at 300 rpm for 1 minute at room temperature.
The plate was incubated at room temperature for 10 minutes.
c) 2.5× working solution containing Amplex UltraRed reagent (125 μM), HRP (2.5 U/mL), choline oxidase (1.25 U/mL), and 16:0 Lyso PC (75 μM) was prepared with 1× assay buffer. 20 μL of 2.5× working solution was added to all reaction wells using a motorized pipette. The plate was centrifuged at 300 rpm for 1 minute at room temperature.
d) The plate was detected by SpectraMax with the following procedures: fluorescence mode; excitation at 550 nm; emission at 590 nm; kinetics; read once every 2 minutes; read continuously for 60 minutes.
The calculation formula of % inhibition (i.e., % inhibition rate) was as follows: […]
V0: X-axis is taken as 0 to 30 minutes, Y-axis is taken as fluorescence readings, and the slope corresponding to the straight line fitted by the software GraphPad Prism 8 is the initial response rate.
V0max: Average V0 of the positive control wells in the plate.
V0min: Average V0 of the negative control wells in the plate.
The IC50 of the compounds was calculated from a nonlinear regression line (dose-initial response rate) fitted by % inhibition and log value of compound concentration using the software GrahPad Prism 8.

[2] = system: plasma LPA 18:1 and LPA 18:2; assay: Human plasma ex vivo assay (LPA 18:1 / 18:2 by LC-MS/MS); format: biochemical; settings: 37° C., 2 hours
Procedure: The collected plasma was centrifuged at 4000 rpm for 15 minutes at 4° C. The supernatant was aliquoted into a 96-well plate (25 μL per well), sealed, and frozen at −80° C. for further use.
LPA 17:0 powder was dissolved in a mixed solution of water: isopropanol: formic acid (1:1:1) to a final concentration of […]. The mixture was aliquoted and frozen at −20° C.
1 volume of formic acid was added to 1000× methanol, mixed well, and stored at 4° C. a) The 96-well plate containing frozen plasma was removed from the −80° C. freezer and thawed on ice at room temperature. b) 6 μL of 50× LPA 17:0 (internal standard) and 264 μL of 0.1% FA were added to a clean well of the 96-well plate; the final concentration of LPA 17:0 (internal standard) was 50 nM. c) 6× compound was 1:3 serially diluted to a total of 8 concentrations, and 5 μL of the compound per well was added to the 96-well plate containing plasma. The maximum final concentration of the compound was 10 μM, and the final concentration of DMSO was 0.1%. The plate was centrifuged at 300 rpm for 30 seconds. The DMSO control sample reacted for 0 hours was used as the minimum value (Min), and the DMSO control sample reacted for 2 hours was used as the maximum value (Max). […]
d) The DMSO sample reacted for 0 hours was rapidly transferred to 0.1% FA solution containing the internal standard in step b) to terminate the reaction and precipitate plasma proteins. e) The 96-well plate containing plasma and compounds was rapidly incubated in a 37° C. incubator for 2 hours. After the incubation, 6 μL of 10× LPA 17:0 and 264 μL of 0.1% FA were added to each well to terminate the reaction and precipitate plasma proteins. […]
f) All the samples were mixed well with a pipette, and centrifuged at 4000 rpm for 10 minutes at 4° C. 150 μL of the supernatant was added to a 96-well U-bottom plate (Thermo 267245), sealed with silica gel, and then loaded. The contents of LPA 18:1 and LPA 18:2 in the samples were detected by LC-MS/MS system.
LPA 18:1(or 18:2) relative content=LPA 18:1(or 18:2) peak area/LPA 17:0 peak area Percentage reduction (%) in plasma LPA18:1(or 18:2)=(Max−X)/(Max−Min)*100 Max: LPA 18:1 (or 18:2) relative content of the DMSO sample reacted for 2 hours Min: LPA 18:1 (or 18:2) relative content of the DMSO sample reacted for 0 hours X: LPA 18:1 (or 18:2) relative content of the sample after compound treatment for 2 hours The IC50 of the compounds was calculated by fitting a nonlinear regression through percentage reduction in plasma LPA 18:1 (or 18:2) and log value of compound concentration using the software GraphPad Prism 8.
Y=Bottom+(Top−Bottom)/(1+10^((Log IC50−X)*Hill Slope))

[3] = LPA 18:1, read-out: Human plasma ex vivo assay IC50 (18:1 LPA)
[4] = LPA 18:2, read-out: Human plasma ex vivo assay IC50 (18:2 LPA)

CN(c1nc(-c2ccc(F)cc2)c(C#N)s1)c1c2c(nc3c(F)cc(N4CC5(CN(C(=O)[C@H]6CCOC6)C5)C4)cc13)[C@@H](O)CC2 (single isomer, unassigned) [Example E5-b]
IC50 [1]: 23.7 nM

C[C@@H]1CN(CC(=O)N2CC(O)C2)CCN1c1cc(F)c2nc3c(c(N(C)c4nc(-c5ccc(F)cc5)c(C#N)s4)c2c1)CC[C@@H]3O (single isomer, unassigned) [Example E6-a]
IC50 [1]: 18.3 nM

C[C@H]1CN(CC(=O)N2CC(O)C2)CCN1c1cc(F)c2nc3c(c(N(C)c4nc(-c5ccc(F)cc5)c(C#N)s4)c2c1)CC[C@H]3O (single isomer, unassigned) [Example E7-b]
IC50 [1]: 18.9 nM

C[C@H]1CN(c2cc(F)c3nc4c(c(N(C)c5nc(-c6ccc(F)cc6)c(C#N)s5)c3c2)CC[C@H]4O)CCN1CC(=O)N1CC(O)C1 (single isomer, unassigned) [Example E8-b]
IC50 [1]: 19.4 nM

CN(c1nc(-c2ccc(F)cc2)c(C#N)s1)c1c2c(nc3c(F)cc(N4CC5(CN(C(=O)[C@@H]6CCOC6)C5)C4)cc13)[C@H](O)CC2 (single isomer, unassigned) [Example E13-b]
IC50 [1]: 20.2 nM

CN(c1nc(-c2ccc(F)cc2)c(C#N)s1)c1c2c(nc3c(F)cc(N4CC5(CN(C(=O)C6CCOCC6)C5)C4)cc13)[C@@H](O)CC2 (single isomer, unassigned) [Example E14-a]
IC50 [1]: 16.6 nM

CN(c1nc(-c2ccc(F)cc2)c(C#N)s1)c1c2c(nc3c(F)cc(N4CC5(CN(C(=O)C6CCOCC6)C5)C4)cc13)[C@H](O)CC2 (single isomer, unassigned) [Example E14-b]
IC50 [1]: 14.7 nM

CN(c1nc(-c2ccc(F)cc2)c(C#N)s1)c1c2c(nc3c(F)cc(N4CC5(CN(C(=O)C6(O)CCOCC6)C5)C4)cc13)[C@H](O)CC2 (single isomer, unassigned) [Example E15-b]
IC50 [1]: 18.5 nM

CN(c1nc(-c2ccc(F)cc2)c(C#N)s1)c1c2c(nc3c(F)cc(N4CC5(CN(C(=O)C(C)(C)O)C5)C4)cc13)[C@H](O)CC2 (single isomer, unassigned) [Example E16-b]
IC50 [1]: 23 nM

CN(c1nc(-c2ccc(F)cc2)c(C#N)s1)c1c2c(nc3c(F)cc(N4CC5(CN(C(=O)N6CCCC6)C5)C4)cc13)[C@@H](O)CC2 (single isomer, unassigned) [Example E17-a]
IC50 [1]: 22.4 nM

CN(c1nc(-c2ccc(F)cc2)c(C#N)s1)c1c2c(nc3c(F)cc(N4CC5(CN(C(=O)N6CCCC6)C5)C4)cc13)[C@H](O)CC2 (single isomer, unassigned) [Example E17-b]
IC50 [1]: 21.5 nM

CN1CC[C@H](C(=O)N2CC3(C2)CN(c2cc(F)c4nc5c(c(N(C)c6nc(-c7ccc(F)cc7)c(C#N)s6)c4c2)CC[C@@H]5O)C3)C1 (single isomer, unassigned) [Example E18-a]
IC50 [1]: 23.4 nM

CN1CC[C@H](C(=O)N2CC3(C2)CN(c2cc(F)c4nc5c(c(N(C)c6nc(-c7ccc(F)cc7)c(C#N)s6)c4c2)CC[C@H]5O)C3)C1 (single isomer, unassigned) [Example E18-b]
IC50 [1]: 37.1 nM

CN(c1nc(-c2ccc(F)cc2)c(C#N)s1)c1c2c(nc3c(F)cc(N4CC5(CN(C(=O)[C@@H]6COC[C@H]6O)C5)C4)cc13)[C@@H](O)CC2 (single isomer, unassigned) [Example E20-a]
IC50 [1]: 18.1 nM

CN(c1nc(-c2ccc(F)cc2)c(C#N)s1)c1c2c(nc3c(F)cc(N4CC5(CN(C(=O)[C@@H]6COC[C@H]6O)C5)C4)cc13)[C@H](O)CC2 (single isomer, unassigned) [Example E20-b]
IC50 [1]: 17 nM

CN(c1nc(-c2ccc(F)cc2)c(C#N)s1)c1c2c(nc3c(F)cc(N4CC5(CN(C(=O)[C@H]6COC[C@@H]6O)C5)C4)cc13)[C@@H](O)CC2 (single isomer, unassigned) [Example E20-c]
IC50 [1]: 25.7 nM

CN(c1nc(-c2ccc(F)cc2)c(C#N)s1)c1c2c(nc3c(F)cc(N4CC5(CN(C(=O)C(C)(C)O)C5)C4)nc13)C(O)CC2 (centres unmarked) [Example E65]
IC50 [2, 3]: 369 nM | IC50 [2, 4]: 496 nM

CCc1nc2c(C)cc(N3CCN(CC(=O)N4CC(O)C4)CC3)cn2c1N(C)c1nc(-c2ccc(F)cc2)c(C#N)s1 [GLPG1690, reference compound]
IC50 [2, 3]: 465 nM | IC50 [2, 4]: 464 nM
